Patent US8986731B2, “Pegylated liposomal formulations of hydrophobic photosensitizers for photodynamic therapy” (Biolitec Pharma Marketing Ltd, priority 2003, dated 2015)

Experiment: Pharmacokinetic properties in HT29 tumour-bearing mice (HPLC of plasma and tissues; tolerability of injection)
Assay type: in vivo, athymic NMRI nu/nu mice
Conditions: lateral tail vein injection, 50 μL
Method: HT 29 human colorectal carcinoma cells are used. Six to eight weeks old adult female athymic NMRI nu/nu mice (Taconic M&B, Denmark) weighting 22-24 g were inoculated subcutaneously in the left hind thigh with 0.1 ml of 8×10^7 HT29 human colorectal carcinoma cells/ml in 5% glucose. Two to three weeks later, as the tumor reached a surface diameter of 7-8 mm, and a thickness of 2-3 mm in height, 50 μL of Temoporfin (0.2 mg/kg) diluted in ethanol or 50 μL pegylated liposomal formulation of mTHPC (0.04 mg/ml) were injected into lateral tail vein. Following the drug injection animals were held under normal animal house lighting conditions (average illumination of 200 Lux, maximum 600 Lux of fluorescent tube light, with no exposure to sunlight or daylight). No photo-reaction was observed during this period. […] The fluorescence wave length was set at 410 nm for excitation and 653 nm for emission. The tissue concentration of mTHPC was calculated from a calibration curve constructed by plotting the peak height values of mTHPC standard solutions versus their concentrations.

For Oc1cccc(-c2c3nc(c(-c4cccc(O)c4)c4ccc([nH]4)c(-c4cccc(O)c4)c4nc(c(-c5cccc(O)c5)c5ccc2[nH]5)CC4)C=C3)c1 [Temoporfin], the “Adverse effects during or immediately after injection” value was “No adverse effects”.
